Measured values published in US12377100B2 (GILEAD SCIENCES, INC., priority 2015, dated 2025).

Columns and labels:
Format in all cases: cell-based
Conditions in all cases: human PBMCs, 24 hours incubation
IL12p40 = experiment: PBMC cytokine profiling assay, IL12-p40 induction
Protocol: (§1) Certain compounds disclosed herein we tested according to the procedure described below. Additionally, certain reference compounds were prepared and tested along with the compounds of the present disclosure.
(§2) Compounds were dissolved and stored in DMSO (Sigma-Aldrich, St. Louis, MO) at 10 mM concentration.
(§3) Cryopreserved human PBMCs isolated from healthy donors were purchased from StemCell Technologies (Vancouver, Canada). Cell culture medium used was RPMI with L-Glutamine (Mediatech, Manassas, VA) supplemented with 10% fetal bovine serum (Hyclone, GE Healthcare, Logan, UT) and Penicillin-Streptomycin (Mediatech). Human TNFα, IL12p40, and IFNα2a 384-well Assay capture plates, standards, buffers and processing reagents were obtained from MesoScale Discovery Technologies (MSD; Rockville, MD).
(§4) Cryopreserved human PBMCs (1×10e8 cells/ml) were thawed at 37° C. and resuspended in 25 mL warm cell culture medium. The cells were pelleted at 200×g (Beckman Avanti J-E) for 5 min and resuspended in 20 mL of fresh culture media. Cells were counted using a Cellometer (Nexcelcom Bioscience), adjusted to 2×10e6 cells, and incubated for 2 hours in an incubator set at 37° C., 5% CO2 to recover from cryopreservation. Compounds were serially diluted in DMSO at half-log steps to generate a 10-point dose range. Using a Bravo pipette equipped with a 384 well head (Agilent), 0.4 μL of compound was transferred to each well of a 384 well black, clear bottom plate (Greiner Bio-One, Germany) containing 30 μL of cell culture medium. Recovered PBMCs were then dispensed into the assay plate at 50 μL per well (100k cells/well) using the MicroFlow multichannel dispenser (Biotek). Final DMSO concentration was 0.5%. DMSO was used as the negative control. The plates were incubated for 24 hours at 37° C. PBMCs in the assay plate were pelleted by centrifugation (Beckman Avanti J-E) at 200×g for 5 min.
(§5) Using a Biomek FX 384 well pipetting station (Beckman), conditioned culture medium (CCM) from the assay plate was transferred to MSD capture plates customized for each cytokine. For IFNα and IL12-p40 detection, 25 μL and 20 μL of CCM were added directly to each capture plate, respectively. For TNFα detection, CCM was diluted 1:9 in fresh culture medium, and 20 μL of diluted CCM was used. Serially diluted calibration standards for each cytokine were used to generate standard curves and establish assay linearity. The plates were sealed and incubated overnight at 4° C. in a plate shaker (Titer Plate) set at 200 rpm. On the following day, antibodies specific for each cytokine were diluted 1:50 in MSD Diluent 100 antibody dilution buffer. Diluted antibodies were added to corresponding capture plates at 10 μL/well, and incubated at RT for 1-2 hrs in the shaker. The plates were washed with PBST buffer (3×, 60 μl/well) using a Biotek Multiflow plate washer. MSD Read Buffer diluted to 2× in deionized water and 35 μL/well was added via Biomek FX instrument. The plates were read immediately in a MSD6000 reader. Data were normalized to positive and negative controls in each assay plate. AC50 values represent compound concentrations at half-maximal effect based on normalized percent activation and calculated by non-linear regression using Pipeline Pilot software (Accelrys, San Diego, CA).

TNFα = experiment: PBMC cytokine profiling assay, TNFα induction
Protocol: as §1, §2, §3, §4, §5

IFNα = experiment: PBMC cytokine profiling assay, IFNα induction
Protocol: as §1, §2, §3, §4, §5

Row | Compound | AC50 (IL12p40; Homo sapiens, PBMC, 24 h) [µM] | AC50 (TNFα; Homo sapiens, PBMC, 24 h) [µM] | AC50 (IFNα; Homo sapiens, PBMC, 24 h) [µM] | AC50 (IL12p40) [µM] | AC50 (TNFα) [µM] | AC50 (IFNα) [µM]
1 | CCCC[C@@H](Nc1nc(N)nc2cccnc12)C(O)CF (single isomer, unassigned) [Example 88] | 0.37 | 0.4 | 35.6 | – | – | –
2 | CCCC[C@@H](Nc1nc(N)nc2cccnc12)C(O)C(F)F (single isomer, unassigned) [Example 90] | 0.62 | 0.86 | 7.8 | – | – | –
3 | CCCC[C@](C)(Nc1nc(N)nc2cccnc12)C(C)O (single isomer, unassigned) [Example 92] | 4.7 | 4.3 | > 50 | – | – | –
4 | CCCC[C@@](C)(Nc1nc(N)nc2cc(F)cnc12)C(C)O (single isomer, unassigned) [Example 94] | – | – | – | 0.7 | 1 | 2.2
5 | CCCC[C@@](C)(Nc1nc(N)nc2cccnc12)C(C)O (single isomer, unassigned) [Example 96] | – | – | – | 1 | 1.1 | 2.8
6 | CCCCNc1nc(N)nc2cccnc12 [Example 1B, N^4-butylpyrido[3,2-d]pyrimidine-2,4-diamine] | 2 | 3.9 | 2.7 | – | – | –
7 | CCCC(C)Nc1nc(N)nc2cccnc12 (stereo not drawn) [Example 2B, N^4-(pentan-2-yl)pyrido[3,2-d]pyrimidine-2,4-diamine] | 2.8 | 5.4 | 4.3 | – | – | –
8 | CC(C)C[C@@H](CO)Nc1nc(N)nc2cccnc12 [Example 3B, (S)-2-((2-aminopyrido[3,2-d]pyrimidin-4-yl)amino)-4-methylpentan-1-ol] | 15.5 | 29.4 | 14.5 | – | – | –
9 | Nc1nc(N[C@H](CO)CC2CC2)c2ncccc2n1 [Example 4B, (S)-2-((2-aminopyrido[3,2-d]pyrimidin-4-yl)amino)-3-cyclopropylpropan-1-ol] | 5.4 | 9.1 | 5.9 | – | – | –
10 | CCC[C@H](Nc1nc(N)nc2cccnc12)C(=O)OC [Example 5B, (S)-methyl 2-((2-aminopyrido[3,2-d]pyrimidin-4-yl)amino)pentanoate] | > 50 | > 50 | 41 | – | – | –
11 | CCC[C@@H](CO)Nc1nc(N)nc2c(Cl)cc(C)nc12 [Example 6B, (S)-2-((2-amino-8-chloro-6-methylpyrido[3,2-d]pyrimidin-4-yl)amino)pentan-1-ol] | > 50 | > 50 | > 50 | – | – | –
12 | Nc1nc(N[C@H](CO)c2ccccc2)c2ncccc2n1 [Example 7, (S)-2-((2-aminopyrido[3,2-d]pyrimidin-4-yl)amino)-2-phenylethanol] | > 50 | > 50 | 34 | – | – | –
13 | CCC[C@H](CO)Nc1nc(N)nc2cccnc12 [Example 8, (R)-2-((2-aminopyrido[3,2-d]pyrimidin-4-yl)amino)pentan-1-ol] | 19.4 | 20.2 | > 50 | – | – | –
14 | CC[C@H](C)[C@@H](CO)Nc1nc(N)nc2cccnc12 [Example 9, (2S,3S)-2-((2-aminopyrido[3,2-d]pyrimidin-4-yl)amino)-3-methylpentan-1-ol] | 1.1 | 1.9 | 7.2 | – | – | –
15 | CSCC[C@@H](CO)Nc1nc(N)nc2cccnc12 [Example 10, (S)-2-((2-aminopyrido[3,2-d]pyrimidin-4-yl)amino)-4-(methylthio)butan-1-ol] | 23.8 | 29.2 | > 50 | – | – | –
16 | CCCCCNc1nc(N)nc2cccnc12 [Example 11, N^4-pentylpyrido[3,2-d]pyrimidine-2,4-diamine] | 6 | 10.1 | 6.9 | – | – | –
17 | Nc1nc(NCCO)c2ncccc2n1 [Example 12, 2-((2-aminopyrido[3,2-d]pyrimidin-4-yl)amino)ethanol] | > 50 | > 50 | > 50 | – | – | –
18 | Nc1nc(NCCCO)c2ncccc2n1 [Example 13, 3-((2-aminopyrido[3,2-d]pyrimidin-4-yl)amino)propan-1-ol] | > 50 | > 50 | > 50 | – | – | –
19 | CCCC[C@@H](CO)Nc1nc(N)nc2cccnc12 [Example 14, (S)-2-((2-aminopyrido[3,2-d]pyrimidin-4-yl)amino)hexan-1-ol] | 0.94 | 1.1 | 1.6 | – | – | –
20 | Nc1nc(NCC2CCCO2)c2ncccc2n1 (stereo not drawn) [Example 16, N^4-((tetrahydrofuran-2-yl)methyl)pyrido[3,2-d]pyrimidine-2,4-diamine] | > 50 | > 50 | > 50 | – | – | –
21 | Nc1nc(NC(CO)CO)c2ncccc2n1 [Example 17, 2-((2-aminopyrido[3,2-d]pyrimidin-4-yl)amino)propane-1,3-diol] | > 50 | > 50 | > 50 | – | – | –
22 | CCC[C@@H](CO)Nc1nc(N)nc2cc(Br)cnc12 [Example 18F, (S)-2-((2-amino-7-bromopyrido[3,2-d]pyrimidin-4-yl)amino)pentan-1-ol] | 15.2 | 16.1 | 30.6 | – | – | –
23 | CCC[C@@H](CO)Nc1nc(N)nc2cc(Cl)cnc12 [Example 19E, (S)-2-((2-amino-7-chloropyrido[3,2-d]pyrimidin-4-yl)amino)pentan-1-ol] | 2.5 | 3.3 | 21.6 | – | – | –
24 | CCC[C@@H](CO)Nc1nc(N)nc2cc(C)cnc12 [Example 20, (S)-2-((2-amino-7-methylpyrido[3,2-d]pyrimidin-4-yl)amino)pentan-1-ol] | 2.8 | 3.2 | 5.4 | – | – | –
25 | CCC[C@@H](CO)Nc1nc(N)nc2cc(CC)cnc12 [Example 21, (S)-2-((2-amino-7-ethylpyrido[3,2-d]pyrimidin-4-yl)amino)pentan-1-ol] | 2.3 | 3.1 | 4.8 | – | – | –
26 | CCC[C@@H](CO)Nc1nc(N)nc2cc(C#N)cnc12 [Example 22, (S)-2-amino-4-((1-hydroxypentan-2-yl)amino)pyrido[3,2-d]pyrimidine-7-carbonitrile] | > 50 | > 50 | 35.9 | – | – | –
27 | CCCC[C@H](CO)Nc1nc(N)nc2cc(Cl)cnc12 [Example 23C, (R)-2-((2-amino-7-chloropyrido[3,2-d]pyrimidin-4-yl)amino)hexan-1-ol] | 25.7 | 24.7 | > 50 | – | – | –
28 | CCC[C@@H](CO)Nc1nc(N)nc2cc(F)c(Cl)nc12 [Example 24D] | 3.1 | 3.4 | 18.4 | – | – | –
29 | CCCCNc1nc(N)nc2c(C)ccnc12 [Example 25E, N^4-butyl-8-methylpyrido[3,2-d]pyrimidine-2,4-diamine] | 19.7 | 20 | 12.3 | – | – | –
